Test results reported in patent US20240158446A1, “CYCLIC COMPOUND HAVING SELECTIVE INHIBITORY ACTION ON KRAS OVER HRAS AND NRAS” (CHUGAI SEIYAKU KABUSHIKI KAISHA, priority 2021, published 2024).
Where two headings read alike, the source gives them in different places. *1 amine or outer side, *2 acyl side, *3 side chain or, on linkers, in order; H or OH if unused. Where a SMILES comes first, the peptide text is derived from it. Bridges are numbered along the chain shown (N, C = ends). [ ]: non-standard residue; d: D form. The star is where a group is joined. hPhe(3-Cl-4-CF3) = N[C@@H](CCc1ccc(C(F)(F)F)c(Cl)c1)C(=O)O; X37 = O=C([C@H](Cc1ccc(C(F)(F)F)cc1)N(CC1CCC1)[*:1])[*:2]; NPrPhe(4-CF3) = CCCN[C@@H](Cc1ccc(C(F)(F)F)cc1)C(=O)O; NMeGly(cPent) = CN[C@H](C(=O)O)C1CCCC1; Pro(4,4-F2) = O=C(O)[C@@H]1CC(F)(F)CN1; Hyp = O=C(O)[C@@H]1C[C@@H](O)CN1; NMeD = CN[C@@H](CC(=O)O)C(=O)O; NMeL = CN[C@@H](CC(C)C)C(=O)O; Morpholide = C1CN(*)CCO1; NMeA = CN[C@@H](C)C(=O)O; Ac5c = NC1(C(=O)O)CCCC1; Aze = O=C(O)[C@@H]1CCN1; Ac4c = NC1(C(=O)O)CCC1; Sar = CNCC(=O)O

Experiments:
[1] = biological target: GDP-bound HRAS wild-type protein (Homo sapiens, UniProt P01112); assay: Binding to HRAS by surface plasmon resonance (SPR), Single Cycle Kinetics; settings: for HRAS/KRAS (ratio of KD value for HRAS to KD value for KRAS) / HRAS/KRAS (ratio of KD value with respect to HRAS to KD value with respect to KRAS): SPR, GDP-bound HRAS wild-type protein vs GDP-bound KRAS wild-type protein; for HRAS/KRAS (ratio of KD value with respect to GDP-bound HRAS wild-type protein to KD value with respect to KRAS): SPR KD ratio HRAS/KRAS, class symbols
GDP-bound HRAS wild-type protein, sequence (P01112 whole entry): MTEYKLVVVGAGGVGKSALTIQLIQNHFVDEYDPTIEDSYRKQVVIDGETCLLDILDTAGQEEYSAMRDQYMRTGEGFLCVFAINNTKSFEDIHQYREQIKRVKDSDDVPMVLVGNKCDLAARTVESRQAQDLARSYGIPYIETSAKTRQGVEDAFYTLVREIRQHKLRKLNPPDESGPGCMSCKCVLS

[2] = biological target: GDP-bound KRAS wild-type protein (Homo sapiens, UniProt P01116); assay: Binding to KRAS by surface plasmon resonance (SPR), Single Cycle Kinetics; settings: GDP-bound KRAS wild-type protein, read-out: KRAS KD
GDP-bound KRAS wild-type protein, sequence (P01116 whole entry): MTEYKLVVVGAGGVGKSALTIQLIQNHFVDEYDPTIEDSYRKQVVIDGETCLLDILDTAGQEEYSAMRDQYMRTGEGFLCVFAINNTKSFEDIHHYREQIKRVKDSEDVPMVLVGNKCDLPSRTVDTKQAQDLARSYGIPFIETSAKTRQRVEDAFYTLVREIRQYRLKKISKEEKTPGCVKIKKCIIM

[3] = biological target: GDP-bound NRAS wild-type protein (Homo sapiens, UniProt P01111); assay: Binding to NRAS by surface plasmon resonance (SPR), Single Cycle Kinetics; settings: for NRAS/KRAS (ratio of KD value for NRAS to KD value for KRAS) / NRAS/KRAS (ratio of KD value with respect to NRAS to KD value with respect to KRAS): SPR, GDP-bound NRAS wild-type protein vs GDP-bound KRAS wild-type protein; for NRAS/KRAS (ratio of KD value with respect to GDP-bound NRAS wild-type protein to KD value with respect to KRAS): SPR KD ratio NRAS/KRAS, class symbols
GDP-bound NRAS wild-type protein, sequence (P01111 whole entry): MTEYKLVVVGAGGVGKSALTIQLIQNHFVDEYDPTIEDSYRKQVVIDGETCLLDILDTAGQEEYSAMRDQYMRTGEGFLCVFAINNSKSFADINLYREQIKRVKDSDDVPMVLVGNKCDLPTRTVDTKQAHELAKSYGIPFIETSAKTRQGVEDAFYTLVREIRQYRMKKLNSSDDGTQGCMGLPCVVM

[4] = SPR, Single Cycle Kinetics, 1:1 binding model
[5] = SPR Single Cycle Kinetics, 1:1 binding model

Kd ([2]; SPR, Single Cycle Kinetics)	Kd [2, 5]	SMILES	HRAS/KRAS (ratio of KD value for HRAS to KD value for KRAS) [1]	NRAS/KRAS (ratio of KD value for NRAS to KD value for KRAS) [3]	further results
0.093 nM		CCO[C@@H]1C[C@H]2C(=O)NC3(CCC3)C(=O)N(C)[C@@H](C3CCCC3)C(=O)N(C)[C@H](C(=O)N(C)C)CC(=O)N(C)[C@@H](CC)C(=O)N[C@@H]([C@@H](C)CC)C(=O)N(C)CC(=O)N(C)[C@H]3CCCCN(C3=O)[C@@H](Cc3ccc(C(F)(F)F)cc3)C(=O)N(C)CC(=O)N[C@@H](CCc3ccc4sccc4c3)C(=O)N2C1 [PP0887]	C (A compound having a KD ratio of 0.1 or more and less than 3 is denoted as C)	C (A compound having a KD ratio of 0.1 or more and less than 3 is denoted as C)	
		CCO[C@@H]1C[C@H]2C(=O)NC3(CCC3)C(=O)N(C)[C@@H](C(CC)CC)C(=O)N(C)[C@H](C)CC(=O)N(C)[C@@H](CC3CCCC3)C(=O)N[C@@H]([C@@H](C)CC)C(=O)N(C)CC(=O)N(C)[C@H]3C/C=C\CCN(C3=O)[C@@H](Cc3ccc(F)cc3C)C(=O)N(C)CC(=O)N[C@@H](CCc3cc(F)c(C(F)(F)F)c(F)c3)C(=O)N2C1 [PP1522]			HRAS/KRAS (ratio of KD value for HRAS to KD value for KRAS) ([1]; KD ratio class): A (a compound having 10 or more and less than 20 is denoted as A); Kd [2, 4]: 8.8 nM; NRAS/KRAS (ratio of KD value for NRAS to KD value for KRAS) ([3]; KD ratio class): A (a compound having 10 or more and less than 20 is denoted as A)
0.71 nM		CCO[C@@H]1C[C@H]2C(=O)NC3(CC(C)(C)C3)C(=O)N(C)[C@@H](C(CC)CC)C(=O)N(C)[C@H](C(=O)N(C)C)CC(=O)N(C)[C@@H](CC(C)C)C(=O)N[C@@H]([C@@H](C)CC)C(=O)N(C)CC(=O)N(C)[C@H]3C/C=C\CCN(C3=O)[C@@H](Cc3ccc(C)cc3)C(=O)N(C)CC(=O)N[C@@H](CCc3ccc(Cl)c(Cl)c3)C(=O)N2C1 [PP2185]	A (a compound having 10 or more and less than 20 is denoted as A)	AA (a compound having 20 or more is denoted as AA)	
0.042 nM		CCO[C@@H]1C[C@H]2C(=O)NC3(CCC3)C(=O)N(C)[C@@H](C3CCCC3)C(=O)N(C)[C@H](C(=O)N(C)C)CC(=O)N(C)[C@@H](CC(F)F)C(=O)N[C@@H]([C@@H](C)CC)C(=O)N(C)CC(=O)N(C)[C@H]3C/C=C\CCN(C3=O)[C@@H](Cc3ccc(C(F)(F)F)cc3)C(=O)N(C)CC(=O)N[C@@H](CCc3cc(F)c(C(F)(F)F)c(F)c3)C(=O)N2C1 [PP1120, (2S,8S,12R,14S,20S,23S,27S,30S,36S,38Z)-20-cyclopentyl-27-(2,2-difluoroethyl)-8-[2-[3,5-difluoro-4-(trifluoromethyl)phenyl]ethyl]-12-ethoxy-N,N,4,19,22,26,32,35-octamethyl-30-[(1S)-1-methylpropyl]-3,6,9,15,18,21,25,28,31,34,42-undecaoxo-2-[[4-(trifluoromethyl)phenyl]methyl]spiro[1,4,7,10,16,19,22,26,29,32,35-undecazatricyclo[34.5.1.0^10,14]dotetracont-38-ene-17,1′-cyclobutane]-23-carboxamide]	A (a compound having 10 or more and less than 20 is denoted as A)	A (a compound having 10 or more and less than 20 is denoted as A)	
	0.12 nM	CCCC[C@H]1C(=O)N[C@@H]([C@@H](C)CC)C(=O)N(C)CC(=O)N(C)[C@H]2C/C=C\CCN(C2=O)[C@@H](Cc2ccc(C)cc2)C(=O)N(C)CC(=O)N[C@@H](CCc2cc(F)c(C(F)(F)F)c(F)c2)C(=O)N2C[C@H](OCC)C[C@H]2C(=O)NC2(CCC2)C(=O)N(C)[C@@H](C2CCCC2)C(=O)N(C)[C@H](C(=O)N(C)CC)CC(=O)N1C [PP2796]			HRAS/KRAS (ratio of KD value with respect to GDP-bound HRAS wild-type protein to KD value with respect to KRAS) [1]: A (a compound having 10 or more and less than 20 is denoted as A); NRAS/KRAS (ratio of KD value with respect to GDP-bound NRAS wild-type protein to KD value with respect to KRAS) [3]: A (a compound having 10 or more and less than 20 is denoted as A)
0.085 nM		CC[C@H](C)[C@@H]1NC(=O)[C@H](CC(C)C)N(C)C(=O)C[C@@H](C(=O)N(C)C)N(C)C(=O)[C@H](C2CCCC2)N(C)C(=O)C2(CCC2)NC(=O)[C@@H]2CC(F)(F)CN2C(=O)[C@H](CCc2ccc(C(F)(F)F)c(Cl)c2)NC(=O)CN(C)C(=O)[C@H](Cc2ccc(F)cc2)N2CCCCC[C@@H](C2=O)N(C)C(=O)CN(C)C1=O [PP0973]	B (a compound having 3 or more and less than 10 is denoted as B)	B (a compound having 3 or more and less than 10 is denoted as B)	
	1.7 nM	CC[C@H](C)[C@@H]1NC(=O)[C@H](CC(C)C)N(C)C(=O)C[C@@H](C(=O)N2CCOCC2)N(C)C(=O)[C@H](C2CCCC2)N(C)C(=O)C2(CCCC2)NC(=O)[C@@H]2CCCN2C(=O)[C@H](CCc2ccc(C(F)(F)F)c(Cl)c2)NC(=O)CN(C)C(=O)[C@H](Cc2ccc(Cl)cc2)N2C/C=C\CC[C@@H](C2=O)N(C)C(=O)CN(C)C1=O [PP0608]			HRAS/KRAS (ratio of KD value with respect to HRAS to KD value with respect to KRAS) [1]: B (a compound having 3 or more and less than 10 is denoted as B); NRAS/KRAS (ratio of KD value with respect to NRAS to KD value with respect to KRAS) [3]: C (A compound having a KD ratio of 0.1 or more and less than 3 is denoted as C)
	0.3 nM	CCC[C@H]1C(=O)N[C@@H]([C@@H](C)CC)C(=O)N(C)CC(=O)N(C)[C@H]2C/C=C\CCN(C2=O)[C@@H](Cc2ccc(C(F)(F)F)cc2)C(=O)N(C)CC(=O)N[C@@H](CCc2cc(F)c(C(F)F)c(F)c2)C(=O)N2C[C@H](OCC)C[C@H]2C(=O)NC2(CC(C)(C)C2)C(=O)N(C)[C@@H](C2CCCC2)C(=O)N(C)[C@H](C(=O)N(C)C)CC(=O)N1C [PP2780]			HRAS/KRAS (ratio of KD value with respect to GDP-bound HRAS wild-type protein to KD value with respect to KRAS) [1]: A (a compound having 10 or more and less than 20 is denoted as A); NRAS/KRAS (ratio of KD value with respect to GDP-bound NRAS wild-type protein to KD value with respect to KRAS) [3]: A (a compound having 10 or more and less than 20 is denoted as A)
	0.025 nM	CCCN1C(=O)[C@@H]2CCN2C(=O)CN(C)C(=O)[C@H]([C@@H](C)CC)NC(=O)[C@H](CC(C)C)N(C)C(=O)C[C@@H](C(=O)N(C)C)N(C)C(=O)[C@H](C2CCCC2)N(C)C(=O)C2(CCC2)NC(=O)[C@@H]2C[C@@H](OCC)CN2C(=O)[C@H](CCc2ccc(C(F)(F)F)c(Cl)c2)NC(=O)CN(C)C(=O)[C@@H]1Cc1ccc(C(F)(F)F)cc1 [PP0445] ([NMeL]I[Sar][Aze][NPrPhe(4-CF3)][Sar][hPhe(3-Cl-4-CF3)][Hyp](Et)[Ac4c][NMeGly(cPent)][NMeD]-NMe2; lactam N-11)			HRAS/KRAS (ratio of KD value with respect to HRAS to KD value with respect to KRAS) [1]: C (A compound having a KD ratio of 0.1 or more and less than 3 is denoted as C); NRAS/KRAS (ratio of KD value with respect to NRAS to KD value with respect to KRAS) [3]: C (A compound having a KD ratio of 0.1 or more and less than 3 is denoted as C)
0.22 nM		CCC[C@H]1C(=O)N[C@@H]([C@@H](C)CC)C(=O)N(C)CC(=O)N(C)[C@H]2C/C=C\CCN(C2=O)[C@@H](Cc2ccc(C(F)(F)F)cc2)C(=O)N(C)CC(=O)N[C@@H](CCc2cc(F)c(C(F)(F)F)c(F)c2)C(=O)N2C[C@H](OCC)C[C@H]2C(=O)NC2(CC(C)(C)C2)C(=O)N(C)[C@@H](C(CC)CC)C(=O)N(C)[C@H](C(=O)N(C)C)CC(=O)N1C [PP2125]	A (a compound having 10 or more and less than 20 is denoted as A)	AA (a compound having 20 or more is denoted as AA)	
	0.066 nM	CCCN1C(=O)CN(C)C(=O)CN(C)C(=O)[C@H]([C@@H](C)CC)NC(=O)[C@H](CC(C)C)N(C)C(=O)C[C@@H](C(=O)N2CCOCC2)N(C)C(=O)[C@H](C2CCCC2)N(C)C(=O)C2(CCC2)NC(=O)[C@@H]2CC(F)(F)CN2C(=O)[C@H](CCc2ccc(C(F)(F)F)c(Cl)c2)NC(=O)CN(C)C(=O)[C@@H]1Cc1ccc(C(F)(F)F)cc1 [PP0207] ([NMeL]I[Sar][Sar][NPrPhe(4-CF3)][Sar][hPhe(3-Cl-4-CF3)][Pro(4,4-F2)][Ac4c][NMeGly(cPent)][NMeD]-Morpholide; lactam N-11)	C (A compound having a KD ratio of 0.1 or more and less than 3 is denoted as C)	B (a compound having 3 or more and less than 10 is denoted as B)	
		CCO[C@@H]1C[C@H]2C(=O)NC3(CCC3)C(=O)N(C)[C@@H](C(CC)CC)C(=O)N(C)[C@H](C(=O)N(C)C)CC(=O)N(C)[C@@H](CC(C)C)C(=O)N[C@@H]([C@@H](C)CC)C(=O)N(C)CC(=O)N(C)[C@H]3C/C=C\CCN(C3=O)[C@@H](Cc3ccc(F)cc3)C(=O)N(C)CC(=O)N[C@@H](CCc3cc(F)c(C(F)(F)F)c(F)c3)C(=O)N2C1 [PP1519]			HRAS/KRAS (ratio of KD value for HRAS to KD value for KRAS) ([1]; KD ratio class): A (a compound having 10 or more and less than 20 is denoted as A); Kd [2, 4]: 0.41 nM; NRAS/KRAS (ratio of KD value for NRAS to KD value for KRAS) ([3]; KD ratio class): A (a compound having 10 or more and less than 20 is denoted as A)
	1.3 nM	CC[C@H](C)[C@@H]1NC(=O)[C@H](CC(C)C)N(C)C(=O)C[C@@H](C(=O)N2CCOCC2)N(C)C(=O)[C@H](C2CCCC2)N(C)C(=O)C2(CCCC2)NC(=O)[C@@H]2CCCN2C(=O)[C@H](CCc2ccc(C(F)(F)F)c(Cl)c2)NC(=O)CN(C)C(=O)[C@H](Cc2ccc(C(F)(F)F)cc2)N(CC2CCC2)C(=O)[C@@H]2CCN2C(=O)[C@H](C)N(C)C1=O [PP0109] ([NMeL]I[NMeA][Aze][X37][Sar][hPhe(3-Cl-4-CF3)]P[Ac5c][NMeGly(cPent)][NMeD]-Morpholide; lactam N-11)	B (a compound having 3 or more and less than 10 is denoted as B)	C (A compound having a KD ratio of 0.1 or more and less than 3 is denoted as C)	
